From patent US20250228858A1, “ANTI-CANCER COMBINATION THERAPY” (Boehringer Ingelheim International GmbH, priority 2023, published 2025)

Columns and labels:
[1] = test system: HER2-overexpressing human gastric cancer cell line NCI-N87; test: NCI-N87 subcutaneous xenograft, zongertinib with T-DXd; type: in vivo, NMRI-Foxn1^nu mice; settings: for Regressions >30% / TGI: day 22; for Regressions >30%: tumors regressed/total
Procedure: The study is performed in human gastric cancer cell line NCI-N87 grown as subcutaneous xenografts in NMRI-Foxn1^nu mice. Day 1 was the first day, day 21 the last day of treatment and day 22 the final day of analysis. […]
NCI-N87 is a HER2-overexpressing human gastric cancer cell line that can be obtained from the American Type Culture Collection (ATCC #CRL-5822). Cells are cultured in T175 tissue culture flasks at 37° C. and 5% CO2. The medium used is RPMI 1640 (ATCC #30-2001) supplemented with 10% fetal calf serum (FCS) (Thermo Scientific #SH 30084.03). Cultures are split twice weekly with a ratio of 1:2.
Mice are 6- to 10-week-old female NMRI-Foxn1^nu purchased from Taconic, Denmark. After arrival at the animal facility, mice are allowed to adjust to conditions at least for 5 days before they are used for the experiment. They are housed in Macrolon® type III cages in groups of 8 to 10 under pathogen-free, controlled and standardized conditions at 21.5±1.5° C. temperature, 55±10% humidity and 12-h light-dark cycle. Standardized diet (PROVIMI KLIBA) and autoclaved tap water are provided ad libitum. Subcutaneous microchips implanted under isoflurane anaesthesia are used to identify each mouse. Cage cards showing the study number, the animal identification number, the compound, the dose level, the administration route as well as the schedule remain with the animals throughout the study.
To establish subcutaneous tumors, NCI-N87 cells are harvested by centrifugation, washed and resuspended in PBS+5% FCS at 2.5×10^7 cells/ml. 100 μl cell suspension containing 2.5×10^6 cells is injected subcutaneously into the right flank of the mice (1 site per mouse).
The suspension is used for a maximum of 7 days.
T-DM1 (Kadcyla) can be purchased from Roche.
(§1) Mice in the control group are treated with vehicle, i.e.: • (i) 0.5% Natrosol, administered once daily for the duration of the treatment intragastrally by gavage needle with a volume of 10 ml/kg body weight; and • (ii) saline (0.9%), administered once every three weeks intravenously into the tail vein with a volume of 5 ml/kg.
Tumor volumes are measured three times a week with a caliper. The volume of each tumor [in mm^3] is calculated according to the formula: […]
To monitor side effects of treatment, mice are inspected daily for abnormalities and body weight is determined three times a week. […] In addition, animals with tumor sizes exceeding 1500 mm^3 in diameter, with ulcerating tumors or 18% body weight loss are euthanized for ethical reasons.
For a quick overview of possible treatment effects, the median of the tumor volume of each treatment group T is referred to the median of the control C as tumor growth inhibition (TGI) defined as: […]

[2] = test system: HER2-overexpressing human breast cancer cell line BT-474; type: in vivo; settings: alone or combined
Procedure: The study is performed in human breast cancer cell line BT-474 grown as orthotopic xenografts in NMRI-Foxn1^nu mice. Day 1 was the first day, day 42 the last day of treatment and final day of analysis.
BT-474 is a HER2-overexpressing human breast cancer cell line that can be obtained from ATCC (lot #61136823). Cells are cultured in T75, T175 and 5-Layer tissue culture flasks at 37° C. and 5% CO2. The medium used is Hybri-Care (ATCC, 46-X) supplemented with 1.5 g/L sodium bicarbonate (GIBCO, Ref.: 25080-060) and 10% FCS (Cytiva HyClone Characterized FBS, SH30084.03n). Cultures are split twice weekly with a ratio of 1:2-1:3.
To establish subcutaneous tumors, BT-474 cells are harvested by centrifugation, washed and resuspended in PBS+5% FCS at 5×10^7 cells/ml. […] cell suspension containing 5×10^6 cells is injected orthotopically into the right mammary fat pad of isoflurane anesthetized mice (1 site per mouse).
Pertuzumab can be purchased from Roche Pharma AG. Pertuzumab is diluted with saline (0.9%) and administered intraperitoneally with a volume of 10 ml/kg.
as §1, with “once every 3 weeks intravenously” for “once every three weeks intravenously”, “of 5 ml/kg; and • (iii) saline (0.9%), administered once every week intraperitoneally with a volume of 10 ml/kg.” for “of 5 ml/kg.”
Tumor volumes and side effects are monitored as described in Example 1 (see paragraph 1.1.6), except that control animals are sacrificed when the median tumor volume of the group reaches a size of approximately 470 mm^3.
The statistical evaluation of the tumor volume and the body weight is conducted on day 42 (last day of the study). Apart from this, statistical analysis was performed as described in Example 1 (see paragraph 1.1.7), with no evaluation of tumor growth after stop of treatment.

[3] = test system: HER2-overexpressing human breast cancer cell line HCC1954; type: in vivo; settings: zongertinib 20 mg/kg qdx21 p.o., T-DXd 1 mg/kg q21dx1 i.v., pertuzumab 20 mg/kg q7dx3 i.p., alone or combined
Procedure: Day 1 was the first day, day 21 the last day of treatment and final day of analysis.
Cells are cultured in T75, T175 and 5-Layer tissue culture flasks at 37° C. and 5% CO2.
The statistical evaluation of the tumor volume and the body weight is conducted on day 21 (last day of the study). Apart from this, statistical analysis was performed as described in Example 1 (see paragraph 1.1.7), with no evaluation of tumor growth after stop of treatment.

[4] = zongertinib 10 mg/kg qdx21 p.o., alone or combined with T-DXd 3 mg/kg q21dx1 i.v.
[5] = zongertinib 20 mg/kg qdx21 p.o., T-DXd 3 mg/kg q21dx1 i.v., alone or combined

Question: How did the “Regressions >30%” value [1, 4] turn out when `C=CC(=O)NC1CCN(c2ncc3ncnc(Nc4ccc(Oc5ccc6c(c5)ncn6C)c(C)c4)c3n2)CC1` [Zongertinib, N-{1-[8-({3-methyl-4-[(1-methyl-1H-1,3-benzodiazol-5-yl)oxy]phenyl}amino)-[1,3]diazino [5,4-d]pyrimidin-2-yl]piperidin-4-yl}prop-2-enamide] was run?
Answer: 5/8

Question: What about the “Regressions >30%” value [1, 5] of the same compound?
Answer: 7/8

Question: And the TGI [1, 4]?
Answer: 114%

Question: And the TGI [1, 5]?
Answer: 123%

Question: And the “effect on tumor growth (median tumor volumes over time)” value ([1]; zongertinib 10 or 20 mg/kg/day, T-DXd 3 mg/kg once, 21-day experiment)?
Answer: continuously shrank more than those in mice treated with T-DXd

Question: What about the “Regressions >30%” value ([2]; day 42, tumors regressed/total (partial response), zongertinib 10 mg/kg qdx42 p.o., T-DXd 1 mg/kg q21dx2 i.v., pertuzumab 20 mg/kg q7dx6 i.p.) of the same compound?
Answer: 0/8

Question: What about the “stable disease (tumors remained stable)” value ([2]; day 42, zongertinib 10 mg/kg qdx42, T-DXd 1 mg/kg q21dx2) of the same compound?
Answer: 2 out of 8

Question: What about the TGI ([2]; day 42, zongertinib 10 mg/kg qdx42 p.o., T-DXd 1 mg/kg q21dx2 i.v., pertuzumab 20 mg/kg q7dx6 i.p.) of the same compound?
Answer: 70%

Question: What about the “effect on tumor growth (median tumor volumes over time)” value ([2]; zongertinib 10 mg/kg qdx42, T-DXd 1 mg/kg q21dx2, pertuzumab 20 mg/kg q7dx6) of the same compound?
Answer: delayed tumor growth, but median tumor volumes increased in the course of the experiment

Question: What about the TGI ([3]; day 21) of the same compound?
Answer: 68%

Question: And the “Regressions >30%” value ([3]; tumors regressed/total (partial response))?
Answer: 0/8
